Experimental data: patent US20090220528A1, “Stimulation of Toll-Like Receptors on T Cells” (THE TRUSTEES OF THE UNIVERISTY OF PENNSYLVANIA CNETER FOR …, priority 2005, published 2009)

How the values were obtained:
Format in all cases: cell-based, mouse
[1] = tested on: CD4+ T cells; experiment: TLR ligation at the time of T cell stimulation: proliferation, IL-2 production and signaling
Description: The present experiments were designed to assess the effects of TLR ligation at the time of T cell stimulation, and analysis of signaling pathways which mediate them.
Similar results were observed when anti-CD28 was used in combination with anti-CD3 (FIGS. 7B-7D). IL-2 production from treat T cells were also measured (FIG. 8). These effects were additive to those of anti-CD28 stimulation.
This led to the examination of other signaling pathways downstream of TLR9. For example, experiments were designed to assess the role of phosphatidyl inositol 3 kinase (PI3K) in TLR9 activation because of the ability of TLR ligation to synergize with TCR stimulation for IL-2 production and proliferation was reminiscent of CD28 functions. PI3K is a lipid kinase which catalyzes the phosphorylation of phosphatidyl inositol bis 4, 5, phosphate (PIP2) into phosphatidyl inositol tris 3, 4, 5, phosphate (PIP3). PIP3 is an important cell signaling molecule, activating protein kinase B/Akt, and other downstream pathways. In T cells, PI3K activation is a major known downstream signaling pathway of the T cell costimulatory receptor CD28.

[2] = tested on: activated CD4+ T cells; experiment: Analysis of antiapoptotic molecules (Bcl-2 FACS; Bcl-xL, Bcl-3 Western blot)
Description: For Bcl-2 evaluation, CD4^+ T cells were permeabilized with 0.1% saponin/0.2% FBS/PBS and stained with anti-Bcl-2 PE monoclonal antibody (3F-11; BD PharMingen) or an isotype hamster IgG-PE control (A19-3; BD PharMingen) and staining was analyzed by FACS. Bcl-xL, Bcl-3, and β-actin were analyzed by Western blotting using rabbit anti-mouse Abs specific for BCl-xL (BD Transduction Laboratories, Lexington, Ky.), Bcl-3 (Santa Cruz Biotechnology, Santa Cruz, Calif.), and β-actin (Accurate Labs, Westbury, N.Y.).
Members of the Bcl family are mediators of activated CD4^+ T cell survival. […] Therefore, levels of each of these molecules were measured following TLR ligand treatment of activated CD4^+ T cells (FIGS. 4C and 4D). Bcl-2 protein levels were not changed by TLR ligand treatment relative to untreated activated CD4^+ T cell controls. Additionally, Bcl-3 protein levels were also left unaffected despite the fact that all of the TLR ligands used in the experiment are also used as adjuvants (Mitchell et al., 2001, Nat. Immunol. 2:397). […] Thus, directly mediated activated CD4^+ T cell survival is associated with specific BCl-xL up-regulation.

[3] = tested on: activated CD4+ T cells; experiment: Survival of activated CD4+ T cells treated with TLR ligands (7-AAD/annexin exclusion)
Description: All CD4^+ T cell activation was conducted in complete culture medium composed of RPMI 1640 (Life Technologies, Grand Island, N.Y.), 1.5 μM 2-ME (Sigma-Aldrich, St. Louis, Mo.), 50 μg/ml gentamicin (Life Technologies), and 10% FCS (Mediatech, Washington, D.C.) at 37° C. in 5% CO2. Purified CD4^+ T cells from either BALB/c, MyD88^−/−, or MyD88^+/+ wild-type control littermates were activated on 24-well plates (Costar, Cambridge, Mass.) coated with 1.0 μg/ml CD3ε monoclonal antibody (2C11; BD Biosciences) and 1.0 μg/ml CD28 monoclonal antibody (37.51; BD Biosciences) for 16 hours. In experiments with DO11.10 mice, 1 μg/ml of pOVA, a peptide derived from chicken albumin amino acid residues […] was added to 2×10^6/ml erythrocyte-depleted splenocyte and lymph node cell pools for 16 hours. Following pOVA-induced activation, CD4^+ T cell APC complexes were disrupted with 5 mM EDTA/PBS for 10 minutes at 25° C., washed twice in PBS, and purified with magnetic beads using the MACS CD4^+ T cell isolation kit as described elsewhere herein. Purity of activated DO11.10 CD4^+ T cells exceeded 96%. As described elsewhere herein, the remainder of the contaminants by FACS analysis were CD8^+ T cells, with APCs at <0.1% by RT-PCR.
Following activation, purified CD4^+ T cells were washed twice in PBS and replated in culture medium at 10^6/ml. Cultures were left untreated or treated with either TLR ligands and/or inhibitors for indicated times and concentrations. Following incubation, CD4^+ T cells were washed twice in PBS/2% FBS and stained with CD4-allophycocyanin monoclonal antibody and 7-aminoactinomycin D (7-AAD; BD PharMingen) or annexin (BD PharMingen) and survival was assessed by exclusion of either of these two stains. For absolute live cell counts 50,000 CD45.1^+ splenocytes labeled with anti-CD45.1-PE monoclonal antibody (A20; BD PharMingen) were also added to stained CD4^+ T cell sample FACS tubes just before FACS analysis. Live CD4^+ T cell counts were calculated by taking the ratio of the number of CD4^+CD45.1^−7-ADD^− events collected to the number CD45.1^+ events collected and multiplying by 50,000. Proliferation was measured by CFSE dye dilution as previously described (Wells et al., 1997 J. Clin. Invest. 100:3173).
TLR ligands directly promote the survival of several cell types including neutrophils, DC, and B cells (Lundqvist et al., 2002, Cancer Immunol. Immunother. 51:139; Sabroe et al., 2003, J. Immunol. 170:5268; Grillot et al., 1996, J. Exp. Med. 183:381; Grillot et al., 1996, J. Exp. Med. 183:381). Since it was observed that activated CD4^+ T cells also express TLRs and signal in response to TLR ligands, the next set of experiments were designed to assess whether TLR ligands could directly enhance survival of these cells. DO11.10 CD4^+ T cells, that encode a transgenic TCR specific for a peptide derived from chicken OVA (pOVA), were activated with pOVA-pulsed APCs for 16 hours ex vivo, purified by magnetic beads to remove all non-CD4^+ T cells, and replated in unsupplemented culture medium in the absence or presence of TLR ligands. Survival was then assessed 72 hours following activation (FIG. 3A). Poly(I:C) or CpG DNA induced increases of activated CD4^+ T cell survival from 38% to 71 and 73%, respectively.

## poly(I:C)
[1]; FIG. 8
  IL-2 protein production with T cell stimulation: able to synergize
[1]; FIG. 9
  TRAF6 requirement of proliferative effects: did not require TRAF6
[1]; with sub-mitogenic anti-CD3, with or without anti-CD28 (FIG. 7)
  T cell proliferation with T cell stimulation: able to synergize
[2]; over LPS-treated and untreated activated CD4+ T cells
  Bcl-xL protein: significant increases
[2]; relative to untreated activated CD4+ T cell controls
  Bcl-3 protein levels: not observed
[3]; 72 hours following activation, DO11.10 CD4+ T cells activated with pOVA-pulsed APCs, purified, untreated 38% (FIG. 3A)
  activated CD4+ T cell survival: 71%
[3]; FIG. 3B, purified activated CD4+ T cells
  effect on activated CD4+ T cell survival (dose response): dose-dependent manner
[3]; T cell-depleted lymph node cells and splenocytes (APC) added
  activated CD4+ T cell survival in TLR ligand-treated cultures spiked with APCs: significantly increased dose-responsive survival
